Measurements from ChEMBL document CHEMBL5154702, “Synthesis and biological evaluation of aminobenzamides containing purine moiety as class I histone deacetylases inhibitors” (Bioorg Med Chem, 2022).
Activity calls are given as the source filed them. No cut-off for these calls is given here.

Assays:
Histone deacetylase 8 = biological target: T1, Histone deacetylase 8 (Homo sapiens, UniProt Q9BY41); experiment: Inhibition of human full-length C-terminal His-tagged HDAC8 expressed in baculovirus infected Sf9 insect cell using fluorogenic HDAC class 2a substrate measured after 30 mins by fluorimetry
T1 sequence (Q9BY41 whole entry): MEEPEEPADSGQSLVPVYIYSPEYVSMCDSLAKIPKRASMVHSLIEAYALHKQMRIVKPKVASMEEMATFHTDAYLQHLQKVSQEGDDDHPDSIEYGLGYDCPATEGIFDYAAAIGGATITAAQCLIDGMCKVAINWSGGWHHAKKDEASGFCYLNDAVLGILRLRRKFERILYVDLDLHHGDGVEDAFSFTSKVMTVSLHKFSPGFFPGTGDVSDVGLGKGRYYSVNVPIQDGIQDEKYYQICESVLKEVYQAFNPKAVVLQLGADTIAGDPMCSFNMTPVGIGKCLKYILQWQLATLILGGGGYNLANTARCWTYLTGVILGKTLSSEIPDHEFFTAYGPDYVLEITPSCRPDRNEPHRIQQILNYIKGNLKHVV

[1] = biological target: Histone deacetylase 3/Nuclear receptor corepressor 2 (HDAC3/NCoR2) (Homo sapiens, UniProt O15379); experiment: biochemical; design: species or system Sf9
Histone deacetylase 1 = Histone deacetylase 1 (Homo sapiens, UniProt Q13547); experiment: Inhibition of recombinant human full-length C-terminal Flag-His6-tagged HDAC1 (1 to 482 residues) expressed in Sf9 insect cells using fluorogenic HDAC substrate measured after 30 mins by fluorimetry
Histone deacetylase 4 = Histone deacetylase 4 (Homo sapiens, UniProt P56524); experiment: Inhibition of recombinant human N-terminal GST-fused/C-terminal His-tagged HDAC4 (627 to 1084 residues) expressed in baculovirus infected Sf9 insect cells using fluorogenic HDAC class 2a substrate measured after 30 mins by fluorimetry
HCT-116 [2] = experiment: Antiproliferative activity against human HCT-116 cells measured after 48 hrs by MTT assay; type: functional, cell-based; details: HCT-116, 48 h
HepG2 = experiment: cells; type: functional, cell-based; details: Homo sapiens, HepG2, 48 h
A549 = experiment: cells; type: functional, cell-based; details: Homo sapiens, A549, 48 h
MDA-MB-231 = experiment: Potency index, ratio of SAHA IC50 to test compound IC50 for antiproliferative activity against human MDA-MB-231 cells; type: functional
[3] = biological target: Histone deacetylase 1/2/3 (Homo sapiens) (UniProt Q13547+O15379+Q92769); experiment: Inhibition of HDAC1/HDAC2/HDAC3 in human HCT-116 cells assessed as increase in accumulation of acetylated H3K9 measured after 24 hrs by Western blot analysis; type: cell-based; details: dose 0.1-10 µM, DDE = dose-dependent effect
HCT-116 [4] = experiment: Induction of cell morphological changes in human HCT-116 cells assessed as nuclear fragmentation at 0.5 to 5 uM measured after 24 hrs by Hoechst 33258 staining based fluorescence microscopy; type: functional; details: dose 0.5-5 µM
HCT-116 [5] = experiment: Induction of cell morphological changes in human HCT-116 cells assessed as chromatin condensation at 0.5 to 5 uM measured after 24 hrs by Hoechst 33258 staining based fluorescence microscopy; type: functional; details: dose 0.5-5 µM
HCT-116 [6] = experiment: Induction of apoptosis in human HCT-116 cells assessed as viable cells at 0.5 uM measured after 24 hrs by Annexin V-FITC/propidium iodide staining based flow cytometry (reference value: 87.3%); type: functional; details: read-out: Activity
HCT-116 [7] = experiment: Induction of apoptosis in human HCT-116 cells assessed as necrotic cells at 0.5 uM measured after 24 hrs by Annexin V-FITC/propidium iodide staining based flow cytometry (reference value: 7.39%); type: functional
HCT-116 [8] = experiment: Induction of apoptosis in human HCT-116 cells assessed as viable cells at 1 uM measured after 24 hrs by Annexin V-FITC/propidium iodide staining based flow cytometry (reference value: 87.3%); type: functional; details: read-out: Activity
HCT-116 [9] = experiment: Induction of apoptosis in human HCT-116 cells assessed as late apoptotic cells at 1 uM measured after 24 hrs by Annexin V-FITC/propidium iodide staining based flow cytometry (reference value: 3.43%); type: functional
HCT-116 [10] = experiment: Induction of apoptosis in human HCT-116 cells assessed as necrotic cells at 5 uM measured after 24 hrs by Annexin V-FITC/propidium iodide staining based flow cytometry (reference value: 7.39%); type: functional
HCT-116 [11] = experiment: Cell cycle arrest in human HCT-116 cells assessed as accumulation of cells at G2/M phase at 0.1 uM measured after 24 hrs by propidium iodide staining based flow cytometry (reference value: 22.74%); type: functional
HCT-116 [12] = experiment: Cell cycle arrest in human HCT-116 cells assessed as accumulation of cells at G0/G1 phase at 0.5 uM measured after 24 hrs by propidium iodide staining based flow cytometry (reference value: 58.05%); type: functional
HCT-116 [13] = experiment: Cell cycle arrest in human HCT-116 cells assessed as accumulation of cells at G2/M phase at 0.5 uM measured after 24 hrs by propidium iodide staining based flow cytometry (reference value: 22.74%); type: functional
HCT-116 [14] = experiment: Cell cycle arrest in human HCT-116 cells assessed as accumulation of cells at G0/G1 phase at 1 uM measured after 24 hrs by propidium iodide staining based flow cytometry (reference value: 58.05%); type: functional
HCT-116 [15] = experiment: Cell cycle arrest in human HCT-116 cells assessed as accumulation of cells at G2/M phase at 1 uM measured after 24 hrs by propidium iodide staining based flow cytometry (reference value: 22.74%); type: functional
HCT-116 [16] = experiment: Cell cycle arrest in human HCT-116 cells assessed as accumulation of cells at G0/G1 phase at 10 uM measured after 24 hrs by propidium iodide staining based flow cytometry (reference value: 58.05%); type: functional
HCT-116 [17] = experiment: Cell cycle arrest in human HCT-116 cells assessed as increase in accumulation of cells at G0/G1 phase at 10 uM by propidium iodide staining based flow cytometry; type: functional; details: time 6-24 hrs, TDE = time-dependent effect
HCT-116 [18] = experiment: Cell cycle arrest in human HCT-116 cells assessed as accumulation of cells at G0/G1 phase at 10 uM measured after 6 hrs by propidium iodide staining based flow cytometry (reference value: 58.05%); type: functional
HCT-116 [19] = experiment: Cell cycle arrest in human HCT-116 cells assessed as accumulation of cells at G2/M phase at 10 uM measured after 6 hrs by propidium iodide staining based flow cytometry (reference value: 22.74%); type: functional
HCT-116 [20] = experiment: Cell cycle arrest in human HCT-116 cells assessed as accumulation of cells at G2/M phase at 10 uM measured after 12 hrs by propidium iodide staining based flow cytometry (reference value: 22.74%); type: functional
HCT-116 [21] = experiment: Cell cycle arrest in human HCT-116 cells assessed as down regulation of cyclin D1 expression measured after 24 hrs by Western blot analysis; type: functional, cell-based; details: dose 0.1-10 µM, DDE = dose-dependent effect
HCT-116 [22] = experiment: Cell cycle arrest in human HCT-116 cells assessed as down regulation of Bcl-2 expression measured after 24 hrs by Western blot analysis; type: functional, cell-based; details: dose 0.1-10 µM, DDE = dose-dependent effect
HCT-116 [23] = experiment: Cell cycle arrest in human HCT-116 cells assessed as up regulation of Bax expression at 5 uM by Western blot analysis; type: functional, cell-based; details: time 6-48 hrs, TDE = time-dependent effect
[24] = Intrinsic clearance in rat liver microsomes assessed per mg protein at 13.8 uM by HPLC analysis; type: ADME, Microsome

Chain of Histone deacetylase 3/Nuclear receptor corepressor 2 (HDAC3/NCoR2) (O15379 whole entry, the tested form may be a part): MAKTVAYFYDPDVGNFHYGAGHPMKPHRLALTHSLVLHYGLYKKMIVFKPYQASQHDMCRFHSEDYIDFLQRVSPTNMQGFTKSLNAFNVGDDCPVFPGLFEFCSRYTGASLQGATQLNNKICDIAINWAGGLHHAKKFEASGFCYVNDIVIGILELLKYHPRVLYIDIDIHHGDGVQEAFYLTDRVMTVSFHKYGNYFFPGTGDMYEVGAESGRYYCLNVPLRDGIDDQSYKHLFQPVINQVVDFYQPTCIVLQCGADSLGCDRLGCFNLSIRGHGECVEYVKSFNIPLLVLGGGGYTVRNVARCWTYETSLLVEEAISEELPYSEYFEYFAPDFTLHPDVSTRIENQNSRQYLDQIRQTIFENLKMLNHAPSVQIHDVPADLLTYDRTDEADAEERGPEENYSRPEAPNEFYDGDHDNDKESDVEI
Chain of Histone deacetylase 3/Nuclear receptor corepressor 2 (HDAC3/NCoR2) (Q9Y618 whole entry, further chain, the tested form may be a part): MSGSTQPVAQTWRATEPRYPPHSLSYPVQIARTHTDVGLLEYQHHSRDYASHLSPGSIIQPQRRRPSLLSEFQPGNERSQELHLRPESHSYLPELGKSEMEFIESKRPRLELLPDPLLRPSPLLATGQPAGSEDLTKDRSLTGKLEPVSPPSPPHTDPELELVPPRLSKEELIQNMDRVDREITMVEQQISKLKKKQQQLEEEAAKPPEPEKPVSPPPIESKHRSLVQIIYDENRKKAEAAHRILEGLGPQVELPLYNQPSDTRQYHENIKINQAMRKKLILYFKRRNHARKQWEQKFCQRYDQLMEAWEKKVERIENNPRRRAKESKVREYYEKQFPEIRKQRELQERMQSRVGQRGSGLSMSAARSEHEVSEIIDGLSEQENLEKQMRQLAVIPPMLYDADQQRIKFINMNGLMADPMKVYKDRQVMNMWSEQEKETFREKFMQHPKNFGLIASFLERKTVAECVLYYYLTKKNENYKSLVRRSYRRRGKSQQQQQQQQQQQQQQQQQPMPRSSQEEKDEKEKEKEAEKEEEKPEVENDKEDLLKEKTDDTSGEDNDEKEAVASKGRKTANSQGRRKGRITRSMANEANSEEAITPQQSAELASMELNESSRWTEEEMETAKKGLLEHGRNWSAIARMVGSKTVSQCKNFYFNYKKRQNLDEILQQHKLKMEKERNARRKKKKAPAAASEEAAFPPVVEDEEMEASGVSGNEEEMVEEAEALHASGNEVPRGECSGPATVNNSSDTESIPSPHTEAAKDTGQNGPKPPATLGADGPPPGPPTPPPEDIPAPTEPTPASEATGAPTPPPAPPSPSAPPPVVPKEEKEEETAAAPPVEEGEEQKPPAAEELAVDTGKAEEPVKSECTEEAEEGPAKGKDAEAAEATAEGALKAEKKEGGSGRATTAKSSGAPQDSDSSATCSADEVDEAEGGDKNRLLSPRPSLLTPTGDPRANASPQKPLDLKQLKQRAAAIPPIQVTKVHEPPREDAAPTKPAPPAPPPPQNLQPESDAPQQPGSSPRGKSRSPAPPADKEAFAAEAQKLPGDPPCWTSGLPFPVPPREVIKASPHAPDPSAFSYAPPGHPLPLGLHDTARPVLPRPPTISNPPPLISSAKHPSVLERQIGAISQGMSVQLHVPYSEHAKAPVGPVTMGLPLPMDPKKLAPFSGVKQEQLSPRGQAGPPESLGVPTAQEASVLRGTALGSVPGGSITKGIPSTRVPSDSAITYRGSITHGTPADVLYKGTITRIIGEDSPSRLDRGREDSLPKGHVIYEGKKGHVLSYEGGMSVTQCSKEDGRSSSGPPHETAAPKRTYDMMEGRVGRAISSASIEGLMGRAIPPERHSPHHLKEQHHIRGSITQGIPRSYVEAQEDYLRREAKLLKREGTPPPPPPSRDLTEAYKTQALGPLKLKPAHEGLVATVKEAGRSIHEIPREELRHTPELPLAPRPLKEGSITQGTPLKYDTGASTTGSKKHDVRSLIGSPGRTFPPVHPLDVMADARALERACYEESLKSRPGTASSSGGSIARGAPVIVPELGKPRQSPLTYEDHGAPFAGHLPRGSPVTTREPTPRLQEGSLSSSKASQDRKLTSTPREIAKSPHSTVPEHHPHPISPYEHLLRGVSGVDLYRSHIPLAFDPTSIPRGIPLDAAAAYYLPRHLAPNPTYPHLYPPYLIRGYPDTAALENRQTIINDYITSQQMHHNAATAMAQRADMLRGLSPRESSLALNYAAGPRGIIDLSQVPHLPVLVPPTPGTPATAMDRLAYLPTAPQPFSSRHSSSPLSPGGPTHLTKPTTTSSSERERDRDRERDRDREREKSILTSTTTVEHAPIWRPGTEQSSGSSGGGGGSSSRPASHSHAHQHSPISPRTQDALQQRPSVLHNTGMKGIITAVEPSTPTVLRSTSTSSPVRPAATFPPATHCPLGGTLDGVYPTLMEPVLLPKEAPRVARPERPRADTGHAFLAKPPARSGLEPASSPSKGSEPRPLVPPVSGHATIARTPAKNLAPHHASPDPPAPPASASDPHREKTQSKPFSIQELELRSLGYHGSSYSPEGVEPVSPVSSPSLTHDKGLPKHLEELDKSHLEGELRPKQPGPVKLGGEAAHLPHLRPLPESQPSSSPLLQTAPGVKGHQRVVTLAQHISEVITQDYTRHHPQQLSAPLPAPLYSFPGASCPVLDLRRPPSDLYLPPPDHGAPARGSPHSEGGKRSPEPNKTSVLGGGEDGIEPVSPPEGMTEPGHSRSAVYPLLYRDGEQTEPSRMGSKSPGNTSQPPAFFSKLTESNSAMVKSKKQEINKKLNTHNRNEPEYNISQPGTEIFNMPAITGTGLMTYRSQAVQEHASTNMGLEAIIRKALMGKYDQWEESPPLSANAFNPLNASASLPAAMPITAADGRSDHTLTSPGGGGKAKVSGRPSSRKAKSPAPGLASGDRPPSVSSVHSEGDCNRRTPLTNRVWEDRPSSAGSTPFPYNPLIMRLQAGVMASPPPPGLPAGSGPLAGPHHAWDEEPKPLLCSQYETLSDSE
Chain of Histone deacetylase 4 (P56524 whole entry, the tested form may be a part): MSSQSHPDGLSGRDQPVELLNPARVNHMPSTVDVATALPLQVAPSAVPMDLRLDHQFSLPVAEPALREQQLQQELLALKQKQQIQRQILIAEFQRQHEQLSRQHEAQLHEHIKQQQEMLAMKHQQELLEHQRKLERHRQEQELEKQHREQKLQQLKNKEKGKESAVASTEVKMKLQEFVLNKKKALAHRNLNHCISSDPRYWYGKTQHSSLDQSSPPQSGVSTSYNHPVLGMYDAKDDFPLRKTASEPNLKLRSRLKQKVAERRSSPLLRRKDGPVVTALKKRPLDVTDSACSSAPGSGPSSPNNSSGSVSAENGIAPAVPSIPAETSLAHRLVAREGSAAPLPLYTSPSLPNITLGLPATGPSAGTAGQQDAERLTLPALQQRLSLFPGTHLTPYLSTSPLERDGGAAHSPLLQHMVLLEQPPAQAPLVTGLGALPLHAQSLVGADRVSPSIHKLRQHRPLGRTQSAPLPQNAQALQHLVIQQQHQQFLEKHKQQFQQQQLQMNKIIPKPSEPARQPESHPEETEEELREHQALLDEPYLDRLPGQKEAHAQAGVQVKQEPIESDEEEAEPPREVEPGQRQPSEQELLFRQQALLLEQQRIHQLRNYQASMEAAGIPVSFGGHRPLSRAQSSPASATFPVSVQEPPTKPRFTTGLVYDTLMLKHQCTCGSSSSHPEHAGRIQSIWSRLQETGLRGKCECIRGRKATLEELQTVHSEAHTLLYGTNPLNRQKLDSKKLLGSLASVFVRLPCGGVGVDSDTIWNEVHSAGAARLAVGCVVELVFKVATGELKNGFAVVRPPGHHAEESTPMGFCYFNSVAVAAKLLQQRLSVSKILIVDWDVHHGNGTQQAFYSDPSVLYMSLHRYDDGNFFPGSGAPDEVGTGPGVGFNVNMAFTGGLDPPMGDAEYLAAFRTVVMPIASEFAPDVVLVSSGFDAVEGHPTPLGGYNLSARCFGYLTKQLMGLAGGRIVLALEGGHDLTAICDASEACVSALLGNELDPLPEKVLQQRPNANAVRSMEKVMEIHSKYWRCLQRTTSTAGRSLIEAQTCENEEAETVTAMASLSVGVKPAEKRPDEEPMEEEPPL
Chain of Histone deacetylase 1 (Q13547 whole entry, the tested form may be a part): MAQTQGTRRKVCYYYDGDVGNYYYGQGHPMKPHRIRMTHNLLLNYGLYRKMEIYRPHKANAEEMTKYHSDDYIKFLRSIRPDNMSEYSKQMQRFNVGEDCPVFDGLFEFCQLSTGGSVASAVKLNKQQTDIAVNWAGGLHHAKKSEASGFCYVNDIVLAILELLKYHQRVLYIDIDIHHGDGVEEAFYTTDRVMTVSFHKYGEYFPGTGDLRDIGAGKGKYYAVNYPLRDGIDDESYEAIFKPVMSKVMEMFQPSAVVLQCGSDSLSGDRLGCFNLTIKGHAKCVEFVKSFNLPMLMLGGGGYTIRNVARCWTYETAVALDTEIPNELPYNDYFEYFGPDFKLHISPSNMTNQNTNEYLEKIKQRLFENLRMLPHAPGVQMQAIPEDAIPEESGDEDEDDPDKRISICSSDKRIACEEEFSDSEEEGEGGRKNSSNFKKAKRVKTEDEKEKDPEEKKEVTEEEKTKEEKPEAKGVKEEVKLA

`CCCCNc1nc(Cl)nc2c1ncn2Cc1ccc(C(=O)Nc2ccccc2N)cc1` gave an IC50 (Histone deacetylase 8) of 948 nM, an IC50 [1] of 1240 nM and an IC50 (Histone deacetylase 1) of 55.1 nM. For the same molecule, the IC50 (Histone deacetylase 4) was > 100000 nM, the IC50 (HCT-116 [2]) was 500 nM and the IC50 (HepG2) was 1290 nM. For the same molecule, the IC50 (A549) was 1650 nM, the “Ratio IC50” value (MDA-MB-231) was 4 and the inhibition [3] was “Dde”. For the same molecule, the Activity (HCT-116 [4]) was “Active”, the Activity (HCT-116 [5]) was “Active” and the viability at 0.5 µM (HCT-116 [6]) was 64.3%. The Activity (HCT-116 [7]) was 0.442%, the viability at 1 µM (HCT-116 [8]) was 40.4% and the Activity (HCT-116 [9]) was 8.94%. The Activity (HCT-116 [10]) was 0.902%, the Activity (HCT-116 [11]) was 23.95% and the Activity (HCT-116 [12]) was 64.42%. It also gave an Activity (HCT-116 [13]) of 20.23%, an Activity (HCT-116 [14]) of 66.71% and an Activity (HCT-116 [15]) of 15.43%. The Activity (HCT-116 [16]) was 73.05%, the Activity (HCT-116 [17]) was “Tde” and the Activity (HCT-116 [18]) was 65.62%. For the same molecule, the Activity (HCT-116 [19]) was 20.04%, the Activity (HCT-116 [20]) was 18.82% and the Activity (HCT-116 [21]) was “Dde”. For the same molecule, the Activity (HCT-116 [22]) was “Dde”, the Activity (HCT-116 [23]) was “Tde” and the CLint [24] was 9.6 µL/min/mg.
